Test system: trinitrobenzenesulfonic acid (TNBS)-induced inflammatory bowel disease model
Experiment: Effect of HA on TNBS-induced inflammatory bowel disease model
Type: in vivo, rat
Description: An inflammatory bowel disease model was prepared by carrying out irrigation of colon of a rat with 0.5 ml of 50 mg/ml TNBS (50% ethanol solution). The TNBS-induced inflammatory bowel disease model is a generally used model which has been established as an induced inflammatory bowel disease model (e.g., see GASTROENTEROLOGY, Vol. 109, No. 4, pp. 1344-1367 (1995), and the like).
In order to examine effect of HA on inflammatory bowel diseases, the following drug effect and pharmacological test was carried out using the inflammatory bowel disease model prepared in the above.
The inflammatory bowel disease model animals were divided into the following groups according to respective tested substances, and 2 ml of physiological saline solution (0.3% (w/v)) of each of the following tested substances was injected into the tail vein of each experimental animal.
In the control group, the first administration was carried out just after the preparation of the above model, and then the administration was continuously carried out once a day for 20 days.
In the HA post-administered group, the first administration was carried out just after the preparation of the above model, and then the administration was continuously carried out once a day for 20 days.
In the HA pre-administered group, the first administration was carried out 24 hours before the preparation of the above model, and then the administration was continuously carried out once a day for 20 days.
During the administration period of tested substances, surviving conditions of the animals were observed every day.
In addition, observation and measurement of the following points were carried out on the animals survived on the 20th day after the first administration.
Also, the following numerical values are expressed as “average value±standard error”.
The large intestine was excised and cut open, and the contents were washed using physiological saline. After the adhered moisture was removed, the weight of the large intestine tissue was measured to calculate the weight per 1 cm bowel tissue. Also, the following numerical values are expressed as “average value±standard error”.
Section samples of bowel tissue were prepared and observed under a light microscope.

[1] = HA post-administered group in comparison with the control group, 20th day, light microscope, FIG. 3

sodium hyaluronate [HA]
conditions of diarrhea (HA administered groups, animals survived on the 20th day after the first administration, severe in control group): hardly observed | cell infiltration, microscopic observation of bowel tissue [1]: inhibited significantly | edema, microscopic observation of bowel tissue [1]: significantly alleviated | body weight (average value±standard error) (HA post-administered group, 20th day after the first administration, control 175 ± 4 g, p<0.001): 203 ± 3 g | weight of the large intestine tissue per 1 cm bowel tissue (bowel tissue edema; average value±standard error) (HA post-administered group, 20th day after the first administration, control 448 ± 60, p<0.001): 51 ± 1 mg/cm bowel tissue | survival ratio (HA pre-administered group (first administration 24 hours before model preparation, 2 ml of 0.3% (w/v) into tail vein once a day), after a lapse of 200 hours): 100% | survival rate in comparison with the control group (each of the HA administered groups (post and pre), 2 ml of 0.3% (w/v) i.v. once a day for 20 days, p=0.0086 Logrank test, FIG. 1): significantly improved

Reference: patent US7354910B2, “Agent for treating inflammatory bowel diseases” (Seikagaku Kogyo Kabushiki Kaisha, priority 2001, dated 2008)
